Test results: the METLIN SMRT retention time set (Domingo-Almenara et al. 2019)

Experiment: gradient 5% acetonitrile 3 min, to 50% in 2 min, to 85% in 15 min, held 3 min, 100 µL/min
Conditions: column: Zorbax Extend-C18 2.1 x 50 mm; eluents: water / acetonitrile, 0.1% formic acid
How it was run: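 Using water and acetonitrile that each contained 0.1% formic acid, mixtures of ~100 pure standards were separated at 100 μL/min on a Zorbax Extend-C18 column (2.1 × 50 mm, 1.8 μm). The HPLC fed a quadrupole time-of-flight mass spectrometer working in positive and negative ionization mode, with dead and dwell volumes of 40 μL and 900 μL. Data were acquired over 3 months. Retention time was read from computationally picked adduct peaks after manual inspection of each.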

RP-LC retention time	SMILES
730 s	COCc1noc(C2CCCCCN2C(=O)NC(C)C)n1 (configuration not stated)
1110 s	CCCS(=O)(=O)c1nc2ccc(NS(=O)(=O)c3ccc(C(C)(C)C)cc3)cc2s1
596 s	CCc1ccc(NC(=O)Cn2c(N)nc(C)c(C)c2=O)cc1
992 s	Cc1ccc(S(=O)(=O)N2C[C@@H]3C[C@H]2C[C@@H]3NC(=O)c2cccs2)cc1Cl
630 s	CCC1CN(C(=O)N2CCC(C(=O)NCCN3CCOCC3)CC2)c2ccccc2O1 (configuration not stated)
1190 s	Cc1ccc(C)c(C(=O)N2CCCC2c2nc(-c3cccc(Cl)c3)no2)c1 (configuration not stated)
896 s	CC(C)n1c(=O)sc2cc(S(=O)(=O)N3CCC(C(=O)NC4CCCC4)CC3)ccc21
719 s	COc1ccc(-c2ncccc2CNS(=O)(=O)c2c(C)cccc2Cl)cc1
598 s	COCC(=O)N1CCC(Oc2nccnc2N(C)C)C1 (configuration not stated)
950 s	CCOc1ccc(S(=O)(=O)N(C)C)c2ccccc12
590 s	Cn1ccnc1C(=O)N1CCC(Cc2noc(C3CC3)n2)C1 (configuration not stated)
687 s	O=S(=O)(c1ccc2c(c1)CCC2)N1CC[C@@H]2COCCN(Cc3cccnc3)[C@@H]2C1
666 s	O=C(CCc1c(-c2ccccc2)nc2ccccn12)NC1CCCCCC1
736 s	OC1(c2ccc(Cl)cc2)CCN(Cc2c[nH]c3ccccc23)CC1
806 s	Cc1noc(C)c1C(=O)N1CC(F)(F)C[C@H]1c1nc(C2CC2)no1
1020 s	COc1cccc(-c2nc(-c3ccc4oc(C)nc4c3)no2)c1OC
578 s	COCC1(O)CCOC2(CCN(Cc3ccc(C#N)cc3)CC2)C1 (configuration not stated)
708 s	CC(C)COc1cc(=O)n2c(c1C(=O)NCC1CC1)CCCCC2
722 s	COc1ccc(NC(=O)N2CCC3(CC2)NC(=O)c2cc(Cl)ccc2N3C)cc1OC
1010 s	C(=C\c1cccs1)/c1nc(-c2cccc(-c3ccn[nH]3)c2)no1
585 s	CC(=O)N1CCC2(CC1)CC(=O)c1ccc(O)c(O)c1O2
845 s	CCn1cc(C(=O)Nc2cccc(F)c2)c(S(=O)(=O)N2CCSCC2)n1
636 s	Cn1c(=O)n(C)c2cc(S(=O)(=O)NCc3ccco3)ccc21

RP-LC retention time	SMILES
848 s	CCOC(=O)c1c(C)[nH]c(C(=O)N2CCCC(C(=O)NCc3cccc(Cl)c3)C2)c1C (configuration not stated)
634 s	CNC(=O)C1CCCN(c2nc3ncn(CC(=O)Nc4ccc(F)cc4)c(=O)c3s2)C1 (configuration not stated)
629 s	CCN1CCCn2nc(C3CCN(C(=O)c4n[nH]c5ccccc45)CC3)cc2C1=O
856 s	COc1nc2ccccc2nc1N1CCCC(C(=O)N2CCCC2)C1 (configuration not stated)
957 s	O=C(O)COC(=O)Cc1ccccc1Nc1c(Cl)cccc1Cl
740 s	COc1ccc(NC(=O)C2CC(=O)N(c3ccc4c(c3)CCN4C(=O)C3CC3)C2)c(C)c1 (configuration not stated)
671 s	CCCCN1CCC(N(C(=O)NCCc2ccccc2)C2CCOCC2)CC1
726 s	Cc1cccc(NS(=O)(=O)c2c[nH]c3ncccc23)c1
1100 s	CCCN1C(=O)c2cc(S(=O)(=O)Nc3ccc(F)c(F)c3)ccc2Oc2cccnc21
909 s	O=C(CN1C(=O)CCCc2cc(S(=O)(=O)N3CCCCC3)ccc21)NCc1ccccc1Cl
929 s	O=c1ccn(-c2ccc(Cl)cc2)nc1-c1nc(-c2ccc(F)cc2)no1
589 s	O=C(NCC1(N2CCOCC2)CCOC1)Nc1ccc2c(c1)OCCO2 (configuration not stated)
1050 s	CCCN1C(=O)COc2ccc(-c3noc(CNC(=O)Cc4ccc(Cl)cc4)n3)cc21
1010 s	Cc1c(-c2noc(-c3ccc4c(c3)OCO4)n2)nnn1Cc1ccccc1
674 s	O=C1CC(c2cccs2)Cc2nc(N3CCN(c4ccccn4)CC3)ncc21 (configuration not stated)
570 s	O=C(Nc1ccccc1Cl)N1CCc2nc[nH]c2C1
830 s	CCOC(=O)c1ccc2nc(NC(=O)c3ccco3)sc2c1
745 s	Cc1ccn2c(Nc3ccccc3C)c(-c3ccccc3)nc2c1
1100 s	O=c1ccc(-c2ccc3c(c2)OCO3)nn1Cc1nc(-c2ccc(F)c(Br)c2)no1
676 s	O=C(C1CCCO1)N1CC2CN(S(=O)(=O)c3cccc(F)c3)CC(C1)O2 (configuration not stated)
871 s	Cc1cccc(S(=O)(=O)N2CC3CN(C(=O)CCC(C)C)CC(C2)O3)c1
791 s	CCN1C(=O)c2cc(C(=O)NCCc3ccccc3)nn2CC1(C)C(=O)NC1CCCC1 (configuration not stated)
846 s	COc1ccc(C(=O)NCCC2=CCCCC2)cc1

RP-LC retention time	SMILES
864 s	CCn1nnc2ccc(-c3noc(Cc4ccc(OC)c(OC)c4)n3)cc21
734 s	CCOc1ccc(-n2nnc(C(=O)O)c2COC)cc1
765 s	CCOc1ccc(NC(=O)CSc2nccc(N3CCN(c4cccc(OC)c4)CC3)n2)cc1
814 s	CSc1cccc(NC(=O)C2CCN(C(=O)C3Sc4ccccc4NC3=O)CC2)c1 (configuration not stated)
624 s	CCOC(=O)Cc1csc(NC(=O)Cc2csc(Nc3cc(C)ccn3)n2)n1
737 s	N#CCn1cccc(S(=O)(=O)N2CCCCCC2)c1=O
951 s	CCCN1C(=O)COc2ccc(-c3noc(C4CC(=O)N(c5ccc(OC)cc5)C4)n3)cc21 (configuration not stated)
919 s	COc1cccc(CNC(=O)C2(C)CCCN(C(=O)Nc3ccccc3Cl)C2)c1 (configuration not stated)
669 s	C[C@H](NC(=O)C1CCCN(S(=O)(=O)c2ccc(F)cc2)C1)C(=O)O (some centres not stated)
1000 s	CCOc1ccc2nc(C(=O)N3CCN(c4ccc(Cl)cc4)CC3)cn2n1
1090 s	Cc1cccc(OCC(=O)Nc2nc(-c3ccccc3)cs2)c1
869 s	Cc1cccc(C2CCCN2C(=O)c2cnn3cc(Br)cnc23)c1 (configuration not stated)
603 s	CN(C)CCNC(=O)CS(=O)Cc1cnn(-c2ccccc2)c1-n1cccc1 (configuration not stated)
852 s	COc1ccc(NC(=O)c2cccc(F)c2)c2ccccc12
1310 s	Cc1ccccc1NC(=O)c1cc(C(C)(C)C)n2nccc2n1
1110 s	Cc1cc(Br)ccc1NS(=O)(=O)c1cc(-c2nc(C)c(C)s2)cs1
638 s	CCN1CCCCc2cc(C(=O)N(C)CCN(C)C)sc21
866 s	CCOc1ccc(CNC(=O)C2(c3ccc(NC(C)=O)cc3)CCCCC2)cc1
700 s	CCCCCn1c(CN(C)C(=O)c2ccco2)nc2ccccc21
1160 s	CC1=NS(=O)(=O)N(Cc2ccccc2)C=C1C(=O)OCc1ccc(Cl)cc1
582 s	Cc1ccc(C(=O)N[C@@H]2CN(S(C)(=O)=O)C[C@H]2CN(C)C)s1
975 s	COc1ccc(NC(=O)CN2c3ccc(F)cc3-c3ccccc3S2(=O)=O)c(OC)c1
705 s	COc1ccc(-c2nnc(CC(=O)NCC(C)C)o2)cc1

RP-LC retention time	SMILES
693 s	O=C(CC1CCN(C(=O)c2ccc3oc(C4CC4)nc3c2)CC1)NCc1ccco1
717 s	Cn1cc(-c2ccncc2)c(-c2ccc(OCc3ccc4ccccc4n3)cc2)n1
586 s	CCOc1ccc(C(=O)NCCCN2CCN(c3ccccc3)CC2)cc1
600 s	CC(=O)c1cccc(NC(=O)N2CCN(c3cnn4c(C)nnc4c3)CC2)c1
1050 s	CCOC(=O)c1c(C)oc2ncnc(NCc3ccc4c(c3)OCO4)c12
987 s	Cc1ccc(-n2c(N3CCCC(C(=O)NCc4ccc(C)c(C)c4)C3)nc3ccsc3c2=O)cc1 (configuration not stated)
903 s	COc1cc(O)cc(O)c1C(=O)/C=C/c1ccccc1
846 s	COc1cccc(NS(=O)(=O)c2cn(C(C)C)c3ncccc23)c1
928 s	Clc1ccccc1-c1ccnc2nc(-c3ccccc3)nn12
816 s	O=C(c1cccc(Cl)c1)N1CCN(c2cc(-c3cccs3)[nH]n2)CC1
636 s	CCc1ccc2[nH]c3c(c(=O)c2c1)CN(CC(=O)Nc1ccc(OC)c(Cl)c1)CC3
718 s	O=C(CSc1nc2ccccc2o1)NCCn1nc(-c2cccs2)ccc1=O
656 s	Cc1noc(C2CCCCN2Cc2nc(-c3cccnc3)no2)n1 (configuration not stated)
847 s	Cn1c(=O)c2cc(C(=O)Nc3ccc(F)c(Cl)c3)sc2n(C)c1=O
1170 s	CCn1nccc1-c1cccc(-c2noc(-c3cccc(OC)c3OC)n2)c1
744 s	Cc1noc(-c2cccn2C)n1
684 s	O=C([C@@H]1C[C@H](F)CN1C(=O)Cc1ccccc1F)N1CCCCC1
646 s	Cc1cccc2nc(-c3ccc(O)cc3)c(Nc3ccc4c(c3)OCCO4)n12
712 s	CC(C)n1cnc(S(=O)(=O)N2CCC(C(=O)NCc3ccccc3)CC2)c1
756 s	CCc1nc(OCC(=O)NCc2ccccc2)c2ccccc2n1
618 s	O=C(CCC(=O)N1CCSc2ccccc21)N1CCN(c2ccccn2)CC1

SMILES	RP-LC retention time
CCOc1ccc(C(=O)N2CCC3(CC2)NCc2ccccc2-n2ccnc23)cc1	619 s
CCCCOc1ccc(CNC(=O)CN2CC=C(c3cnn(-c4ccccc4)c3)CC2)cc1	826 s
